What was measured:
EGFR = target: T1, EGFR (Homo sapiens, UniProt P00533); assay: Western blot degradation of EGFR; format: cell-based; settings: H1975 Cell; 24 hours
T1 construct: L858R/T790M in cis, heterozygous with wild type), Western blot
Method: Conventional Western blot assay was performed to evaluate the effects of the compounds of the present disclosure on the expression of target proteins in cells.
(1) Cell Seeding and Protein Harvesting: The selected cells were processed according to the cell seeding procedure and protein harvesting procedure in Table II-2.
(2) To the collected supernatant, 5×SDS sample loading buffer was added, followed by denaturation at 95 °C for 5 minutes. The denatured samples were then separated by SDS-PAGE electrophoresis on a polyacrylamide gel. Proteins were transferred to a nitrocellulose membrane (0.45 μm NC membrane), blocked with blocking buffer at room temperature for 1 hour, and subjected to antibody incubation and development procedures according to the antibody manufacturer's instructions (Cell Signaling Technology).
Half-Maximal Degradation Concentration value (the drug concentration required for degrading proteins by 50%, abbreviated as DC50) reads method: comparing the grayscale values of Western blot bands from drug-treated samples with those from blank DMSO-treated controls, and identifying the drug concentration range at which the grayscale value is half that of the DMSO-treated control bands.
DC50 values can be calculated using ImageJ software to measure grayscale values of Western blot bands from drug-treated samples. The concentration-response curve is fitted to estimate the drug concentration corresponding to half the grayscale value.
Target protein remaining (%) refers to the percentage of target protein remaining in cells after treatment with protein degrader compounds.
Calculation method for target protein remaining (%): Use ImageJ software to measure grayscale values of Western blot bands from drug (protein degrader)-treated samples. The grayscale value of drug-treated bands is divided by that of internal control protein bands, and the resulting quotient is normalized to obtain the relative percentage of remaining target protein after protein degrader treatment.
Target protein degradation rate (%)=1−target protein remaining (%).

[1] = system: Human neuroblastoma cell line (SK-N-AS); assay: Inhibition of SK-N-AS cell proliferation (CellTiter luminescent viability); format: cell-based; settings: Table II2, EZH2 inhibitor-based, 96 hours; for inhibition at 0.01 µM: 10 nM, read-out: Inhibition Rate at 10 nM (%); for inhibition at 0.5 µM: 500 nM, read-out: Inhibition Rate at 500 nM (%)
Method: The tumor cells used herein were cultured in a cell culture medium listed in table 3 at 37 °C in an incubator with 5% CO2. Prior to experimentation, all cell lines used were correctly identified by STR profiling, and tested negative for mycoplasma contamination using a mycoplasma detection kit through routine screenings.
The IC50 values of the compounds of the present disclosure (including the compounds in Table 1, Table 2, and Examples 1-468) were determined using the CellTiter-Meiluncell Luminescent Cell Viability Assay Kit from Dalian Meilun Biotech Co., Ltd. The detailed procedure is as follows: Tumor cells were seeded in 96-well cell culture plates at the densities specified in Table 4. On the following day, the test compounds of the present disclosure were subjected to serial dilution. The dilution can be performed according to one of the following two methods: • (1) The first dilution method: The test compounds of the present disclosure (including the compounds in Table 1, Table 2, and Examples 1-468) were subjected to 5-fold serial dilutions starting from a highest concentration of 2000 μM, resulting in a total of 9 concentrations from high to low (2000, 400, 80, 16, 3.2, 0.64, 0.128, 0.0256, 0.00512 μM). Subsequently, 0.5 μL of the test compound dilution was transferred into the 96-well plate containing the cells, with each well containing 100 μL of cell culture medium. […] Into the 96-well plate, the diluted test compounds and corresponding detection reagents were added, resulting in final test compound concentrations of 500 nM and 10 nM, respectively. The experimental procedure is described below using the diluted 2 μM test compound as an example.
0.5 μL of the aforementioned diluted compound of the present disclosure (including the compounds in Table 1, Table 2, and Examples 1-468) was added to the seeded cells in 100 μL of medium, yielding a final test compound concentration of 10 nM. After the cells were treated with the compounds of the present disclosure for a specified period, the cell viability assay reagent was added to the culture medium according to the kit's instructions to determine cell viability. […] All controls were treated using the same procedure as the compounds of the present disclosure. The growth inhibition curves for the compounds of the present disclosure were plotted using Prism GraphPad software, and the IC50 values were calculated therefrom.

T1 sequence (P00533 25-1210): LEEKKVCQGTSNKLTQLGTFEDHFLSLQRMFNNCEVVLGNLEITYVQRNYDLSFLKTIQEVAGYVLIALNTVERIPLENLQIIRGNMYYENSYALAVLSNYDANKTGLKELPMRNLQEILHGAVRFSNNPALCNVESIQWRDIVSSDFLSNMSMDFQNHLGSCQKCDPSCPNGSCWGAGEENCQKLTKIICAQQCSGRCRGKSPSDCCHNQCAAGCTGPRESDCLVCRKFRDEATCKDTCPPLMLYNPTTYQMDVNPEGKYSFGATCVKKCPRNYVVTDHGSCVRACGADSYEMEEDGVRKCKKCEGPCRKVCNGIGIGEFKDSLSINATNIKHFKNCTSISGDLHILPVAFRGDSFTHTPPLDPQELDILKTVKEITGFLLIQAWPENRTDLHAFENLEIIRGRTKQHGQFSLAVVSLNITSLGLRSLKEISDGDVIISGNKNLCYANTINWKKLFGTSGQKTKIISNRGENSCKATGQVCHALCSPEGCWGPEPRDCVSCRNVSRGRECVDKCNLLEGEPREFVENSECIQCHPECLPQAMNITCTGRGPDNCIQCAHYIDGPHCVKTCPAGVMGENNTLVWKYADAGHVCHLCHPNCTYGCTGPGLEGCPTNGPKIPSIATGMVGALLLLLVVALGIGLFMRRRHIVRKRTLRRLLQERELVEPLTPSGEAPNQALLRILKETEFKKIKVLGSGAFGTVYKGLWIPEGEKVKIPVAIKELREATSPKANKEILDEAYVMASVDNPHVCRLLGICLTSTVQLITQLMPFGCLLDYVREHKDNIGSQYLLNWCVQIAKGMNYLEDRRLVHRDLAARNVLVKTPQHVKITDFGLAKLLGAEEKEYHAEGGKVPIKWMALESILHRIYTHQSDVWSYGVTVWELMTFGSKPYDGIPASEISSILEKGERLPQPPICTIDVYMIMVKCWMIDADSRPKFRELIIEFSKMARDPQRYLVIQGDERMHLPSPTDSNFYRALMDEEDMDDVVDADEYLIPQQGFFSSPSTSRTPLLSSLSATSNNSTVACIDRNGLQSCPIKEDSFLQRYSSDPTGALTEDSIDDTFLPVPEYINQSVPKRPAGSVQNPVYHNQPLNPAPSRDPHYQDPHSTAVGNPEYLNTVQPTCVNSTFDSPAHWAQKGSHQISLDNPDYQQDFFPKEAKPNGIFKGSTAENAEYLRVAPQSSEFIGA
T1 sequence (Q96SW2 whole entry partner): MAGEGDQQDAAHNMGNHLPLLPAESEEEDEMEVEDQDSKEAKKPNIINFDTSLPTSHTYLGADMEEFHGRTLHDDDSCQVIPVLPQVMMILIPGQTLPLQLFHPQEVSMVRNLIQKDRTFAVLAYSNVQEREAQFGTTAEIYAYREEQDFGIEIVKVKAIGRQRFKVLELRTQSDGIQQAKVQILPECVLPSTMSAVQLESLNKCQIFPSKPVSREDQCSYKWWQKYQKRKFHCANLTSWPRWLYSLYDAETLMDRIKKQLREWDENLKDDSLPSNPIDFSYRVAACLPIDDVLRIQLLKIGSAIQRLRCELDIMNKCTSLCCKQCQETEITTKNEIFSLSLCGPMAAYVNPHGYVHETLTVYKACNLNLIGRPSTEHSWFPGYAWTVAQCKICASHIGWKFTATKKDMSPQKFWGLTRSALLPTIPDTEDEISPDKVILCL

Row | SMILES | Degradation of substrate protein EGFR (substrate protein remaining %) (EGFR) | inhibition at 0.01 µM [1] | inhibition at 0.5 µM [1]
1 | O=C1CCN(N2Cc3cc(CN4CCN(c5ccc(Nc6ncc7nc(Nc8ccccc8)n(C8CCCC8)c7n6)cc5)CC4)ccc3C2=O)C(=O)N1 [GT-05836, 1-(5-((4-(4-((9-cyclopentyl-8-(phenylamino)-9H-purin-2-yl)amino)phenyl)piperazin-1-yl)methyl)-1-oxoisoindolin-2-yl)dihydropyrimidine-2,4 (1H,3H)-dione] | A (0%≤substrate protein remaining %≤80%) |  | 
2 | CN(CC1CCN(c2ccc3c(c2)C(=O)N(N2CCC(=O)NC2=O)C3=O)CC1)C1CCN(c2ccc(Nc3ncc4nc(Nc5ccccc5)n(C5CCCC5)c4n3)cc2)CC1 [GT-05843, 5-(4-(((1-(4-((9-cyclopentyl-8-(phenylamino)-9H-purin-2-yl)amino)phenyl)piperidin-4-yl)(methyl)amino)methyl)piperidin-1-yl)-2-(2,4-dioxotetrahydropyrimidin-1(2H)-yl)isoindoline-1,3-dione] | A (0%≤substrate protein remaining %≤80%) |  | 
3 | O=C1CCN(N2Cc3cc(CN4CCN(C5CCN(c6ccc(Nc7ncc8nc(Nc9ccccc9)n(C9CCCC9)c8n7)cc6)CC5)CC4)ccc3C2=O)C(=O)N1 [GT-05914, 1-(5-((4-(1-(4-((9-cyclopentyl-8-(phenylamino)-9H-purin-2-yl)amino)phenyl)piperidin-4-yl)piperazin-1-yl)methyl)-1-oxoisoindolin-2-yl)dihydropyrimidine-2,4 (1H,3H)-dione] | A (0%≤substrate protein remaining %≤80%) |  | 
4 | COc1cc(N2CCN(Cc3ccc4c(c3)CN(N3CCC(=O)NC3=O)C4=O)CC2)c(C)cc1Nc1ncc(Br)c(Nc2ccc3nccnc3c2P(C)(C)=O)n1 [GT-05946, 1-(5-((4-(4-((5-bromo-4-((5-(dimethylphosphoryl)quinoxalin-6-yl)amino)pyrimidin-2-yl)amino)-5-methoxy-2-methylphenyl)piperazin-1-yl)methyl)-1-oxoisoindolin-2-yl)dihydropyrimidine-2,4 (1H,3H)-dione] | A (0%≤substrate protein remaining %≤80%) |  | 
5 | O=C1CCN(N2C(=O)c3ccc(N4CCC(CN5CCN(C6CCN(c7ccc(Nc8ncc9nc(Nc%10ccccc%10)n(C%10CCCC%10)c9n8)cc7)CC6)CC5)CC4)cc3C2=O)C(=O)N1 [GT-05955, 5-(4-((4-(1-(4-((9-cyclopentyl-8-(phenylamino)-9H-purin-2-yl)amino)phenyl)piperidin-4-yl)piperazin-1-yl)methyl)piperidin-1-yl)-2-(2,4-dioxotetrahydropyrimidin-1(2H)-yl)isoindoline-1,3-dione] | A (0%≤substrate protein remaining %≤80%) |  | 
6 | COc1cc(N2CCC(N3CCN(Cc4ccc5c(c4)CN(N4CCC(=O)NC4=O)C5=O)CC3)CC2)c(C)cc1Nc1ncc(Br)c(Nc2ccc3nccnc3c2P(C)(C)=O)n1 [GT-05996, 1-(5-((4-(1-(4-((5-bromo-4-((5-(dimethylphosphoryl)quinoxalin-6-yl)amino)pyrimidin-2-yl)amino)-5-methoxy-2-methylphenyl)piperidin-4-yl)piperazin-1-yl)methyl)-1-oxoisoindolin-2-yl)dihydropyrimidine-2,4 (1H,3H)-dione] | A (0%≤substrate protein remaining %≤80%) |  | 
7 | COc1cc(N2CCC(N3CCN(CC4CCN(c5ccc6c(c5)C(=O)N(N5CCC(=O)NC5=O)C6=O)CC4)CC3)CC2)c(C)cc1Nc1ncc(Br)c(Nc2ccc3nccnc3c2P(C)(C)=O)n1 [GT-05997, 5-(4-((4-(1-(4-((5-bromo-4-((5-(dimethylphosphoryl)quinoxalin-6-yl)amino)pyrimidin-2-yl)amino)-5-methoxy-2-methylphenyl)piperidin-4-yl)piperazin-1-yl)methyl)piperidin-1-yl)-2-(2,4-dioxotetrahydropyrimidin-1(2H)-yl)isoindoline-1,3-dione] | A (0%≤substrate protein remaining %≤80%) |  | 
8 | COc1cc(N2CCC(N3CCN(CC4CCN(c5cccc6c5C(=O)N(N5CCC(=O)NC5=O)C6=O)CC4)CC3)CC2)c(C)cc1Nc1ncc(Br)c(Nc2ccc3nccnc3c2P(C)(C)=O)n1 [GT-05998, 4-(4-((4-(1-(4-((5-bromo-4-((5-(dimethylphosphoryl)quinoxalin-6-yl)amino)pyrimidin-2-yl)amino)-5-methoxy-2-methylphenyl)piperidin-4-yl)piperazin-1-yl)methyl)piperidin-1-yl)-2-(2,4-dioxotetrahydropyrimidin-1(2H)-yl)isoindoline-1,3-dione] | A (0%≤substrate protein remaining %≤80%) |  | 
9 | CC(C)n1nc(N2CCC(N(C)Cc3ccc4c(c3)CN(N3CCC(=O)NC3=O)C4=O)CC2)c2cnc(Nc3ccnc(-c4cnn(S(=O)(=O)C5CC5)c4)n3)cc21 [GT-06019, 1-(5-(((1-(6-((2-(1-(cyclopropylsulfonyl)-1H-pyrazol-4-yl)pyrimidin-4-yl)amino)-1-isopropyl-1H-pyrazolo[4,3-c]pyridin-3-yl)piperidin-4-yl)(methyl)amino)methyl)-1-oxoisoindolin-2-yl)dihydropyrimidine-2,4 (1H,3H)-dione] | A (0%≤substrate protein remaining %≤80%) |  | 
10 | CCN(c1cc(-c2ccc(N3CCC(N(C)Cc4ccc5c(c4)CN(N4CCC(=O)NC4=O)C5=O)CC3)cc2)cc(C(=O)NCc2c(C)cc(C)[nH]c2=O)c1C)C1CCOCC1 [GT-08512, N-((4,6-dimethyl-2-oxo-1,2-dihydropyridin-3-yl)methyl)-4′-(4-(((2-(2,4-dioxotetrahydropyrimidin-1(2H)-yl)-1-oxoisoindolin-5-yl)methyl)(methyl)amino)piperidin-1-yl)-5-(ethyl(tetrahydro-2H-pyran-4-yl)amino)-4-methyl-[1,1′-biphenyl]-3-carboxamide] |  | 10 to 15% | 20 to 30%
11 | CCN(c1cc(-c2ccc(CN3CCN(CC4CCN(c5cccc6c5C(=O)N(N5CCC(=O)NC5=O)C6=O)CC4)CC3)cc2)cc(C(=O)NCc2c(C)cc(C)[nH]c2=O)c1C)C1CCOCC1 [GT-08519, N-((4,6-dimethyl-2-oxo-1,2-dihydropyridin-3-yl)methyl)-4′-((4-((1-(2-(2,4-dioxotetrahydropyrimidin-1(2H)-yl)-1,3-dioxoisoindolin-4-yl)piperidin-4-yl)methyl)piperazin-1-yl)methyl)-5-(ethyl(tetrahydro-2H-pyran-4-yl)amino)-4-methyl-[1,1′-biphenyl]-3-carboxamide] |  | 10 to 15% | 20 to 30%
12 | CCN(c1cc(-c2ccc(N3CCN(CC4CCN(c5cccc6c5C(=O)N(N5CCC(=O)NC5=O)C6=O)CC4)CC3)cc2)cc(C(=O)NCc2c(C)cc(C)[nH]c2=O)c1C)C1CCOCC1 [GT-08521, N-((4,6-dimethyl-2-oxo-1,2-dihydropyridin-3-yl)methyl)-4′-(4-((1-(2-(2,4-dioxotetrahydropyrimidin-1(2H)-yl)-1,3-dioxoisoindolin-4-yl)piperidin-4-yl)methyl)piperazin-1-yl)-5-(ethyl(tetrahydro-2H-pyran-4-yl)amino)-4-methyl-[1,1′-biphenyl]-3-carboxamide] |  | 20 to 30% | 30 to 40%
13 | CCCc1cc(C)[nH]c(=O)c1CNC(=O)c1cc(-c2ccc(N3CCN(C(C)C)CC3)nc2)cc2c1cnn2C(C)C [UNC1999, reference compound] |  | 0 to 5% | 0 to 5%

— patent publication US20260364184A1, “COMPOUND BASED ON OXOISOINDOLINYL-SUBSTITUTED TETRAHYDROPYRIMIDINE-DIONE AND USE THEREOF” (GLUETACS THERAPEUTICS (SHANGHAI) CO., LTD., priority 2023, published 2026)
